Each structure is given as a SMILES string.

The text below walks through data of patent US20060223857A1, “Combination of a serotonin reuptake inhibitor and a glycine transporter type 1 inhibitor for the treatment of depression” (priority 2003, published 2006).

The assay relates to serotonin levels in rat ventral hippocampus. Nature of the assay: Microdialysis of serotonin levels in ventral hippocampus. In kind it is in vivo. On the procedure: Male albino rats of a Wistar-derived strain (285-320 g; Harlan, Zeist, The Netherlands) were used for the experiments. Upon surgery, rats were housed individually in plastic cages (35×35×40 cm), and had free access to food and water. Animals were kept on a 12 h light schedule (light on 7:00 a.m.). The experiments are concordant with the declarations of Helsinki and were approved by the animal care committee of the faculty of mathematics and natural science of the University of Groningen.
The following drugs were used: Citalopram hydrobromide and NFPS having the structure: [drawing 3] (LU 2736N) (Lundbeck A/S, Copenhagen, Denmark). Drugs were dissolved in saline and administered s.c. Surgery […]
Twenty-μl microdialysate samples were injected via an autoinjector (CMA/200 refrigerated microsampler, CMA, Sweden) onto a 100×2.0 mm C18 Hypersil 3 μm column (Bester, Amstelveen, the Netherlands) and separated with a mobile phase consisting of 5 g/L di-ammoniumsulfate, 500 mg/L EDTA, 50 mg/L heptane sulphonic acid, 4% methanol v/v, and 30 μl/L of triethylamine, pH 4.65 at a flow of 0.4 ml/min (Shimadzu LC-10 AD). 5-HT was detected amperometrically at a glassy carbon electrode at 500 mV vs Ag/AgCl (Antec Leyden, Leiden, The Netherlands). […]

For the molecule `CN(CCC(Oc1ccc(-c2ccccc2)cc1)c1ccc(F)cc1)CC(=O)O` (centres unmarked) [NFPS], the “augmentation of the effect of citalopram on hippocampal serotonin levels” value (NFPS 10 μmol/kg s.c. co-administered with citalopram 10 μmol/kg s.c., Treatment P=0.044, Treatment vs. Time P=0.033) is listed as “significantly augmented the effect of citalopram”. The “effect on serotonin levels in rat ventral hippocampus” value (NFPS alone, 10 μmol/kg s.c., microdialysis, Wistar rats) is recorded as “did not induce any significant effects”.
